Like-named read-outs stand apart in the source and are kept apart here.
Legend:
[1] = system: CaV1.2 channels; conditions: Katchman et al. 2017; cited from earlier work
[2] = system: CaV1.2 channels
Description: Membrane currents from isolated mouse ventricular cardiomyocytes (O'Connell et al. 2007) were measured by the whole-cell patch-clamp method using a MultiClamp 700B amplifier and pCLAMP 10 software (Molecular Devices) as described (Yang et al. 2013). The pipette solution contained (in mM): 40 CsCl, 90 Cs gluconate, 10 BAPTA, 1 MgCl2, 4 Mg-ATP, 2 CaCl2, and 10 HEPES, adjusted to pH 7.2 with CsOH. After the isolated cardiomyocytes were adequately buffered with 10 mM BAPTA in the internal solution, the isolated cardiomyocytes were superfused with (in mM): 140 TEA-CI, 1.8 CaCl2, 1 MgCl2, 10 glucose, and 10 HEPES, adjusted to pH 7.4 with CsOH. For experiments in tsA-201 cells, TEA-CI was reduced to 130 mM, and BaCl2 (10 mM) was used instead of CaCl2. Pipette series resistances were usually <1 MΩ after 60% compensation. Leak currents and capacitance transients were subtracted by a P/4 protocol. Voltages were corrected for the liquid junction potential of −10 mV. To measure Ca^2+ peak currents, the cell membrane potential was held at −50 mV and stepped to +10 mV for 350 ms every 10 seconds. To evaluate the current-voltage (I-V) relationship for Ca^2+ currents, the same protocol was repeated with steps between −50 mV to +50 mV in 10 mV increments. All experiments were performed at room temperature, 22±1° C. The parameters of voltage-dependent activation were obtained using a modified Boltzmann distribution: I(V)=Gmax*(V−Erev)/[1+exp(Vmid−V)/Vc)], where I(V) is peak current, Gmax is maximal conductance, Erev is reversal potential, Vmid is the midpoint, and Vc is the slope factor.
We next determined the sensitivity of CaV1.2 channels containing either transgenic pWT α1C or AID-mutant α1C to PKA modulation.

[3] = system: CaV1.2 channels; experiment: Whole-cell Ba2+ currents of adenovirus-infected cultured guinea pig ventricular myocytes; type: cell-based; conditions: control cells expressing GFP or YFP-tagged mutant (YWI/AAA) AID peptide; 1 μM forskolin
Description: Replication deficient adenoviral vectors expressing AID-YFP and AIDmut-YFP were generated using the AdEasy Adenoviral Vector System (Agilent Technologies) according to the manufacturer's instructions. Briefly, sequences for AID-YFP and AIDmut-YFP were PCR-amplified and cloned into pShuttle-CMV vector. After linearization with PmeI, shuttle vectors were electroporated into BJ5183 cells containing pAdEasy-1 viral plasmid. Positive recombinants were amplified, linearized with Pac I, and transfected into AD-293 cells using the calcium phosphate precipitation method. Transfected cells were monitored for development of adenoviral plaques, after which the cells were freeze-thawed and the lysate used to infect a 10-cm dish of 90% confluent HEK293 cells. Viral expansion and purification was carried out as previously described (Colecraft et al. 2002).
Adult guinea pig ventricular myocytes were isolated by enzymatic digestion using a Langendorff perfusion apparatuses, and cultured as previously described (Miriyala et al. 2008). […] Heart cells were infected 2-3 hours after plating with 5-20 μl of adenoviral vector stock (≅10^11-10^12 viral particles/ml).
Whole-cell recordings of virally-infected cultured guinea pig ventricular myocytes were conducted at room temperature as previously described (Miriyala et al. 2008; Xu et al. 2010). […]

[4] = system: phospholamban; experiment: Immunoblot of phospholamban Ser16 phosphorylation in cardiomyocytes; type: cell-based, mouse; conditions: AID-mutant transgenic mice cardiomyocytes; 200 nM isoproterenol
Description: Cells were exposed to 200 nM isoproterenol. Protein extracts were size-fractionated on SDS-PAGE, transferred to nitrocellulose and blotted with anti-pSer16 phospho-specific antibody (upper blot), and anti-PLB antibody (lower blot). Representative of three similar experiments.
Cardiac lysates from 6-12-week-old doxycycline-fed transgenic mice were prepared from either whole hearts or isolated ventricular cardiomyocytes (Yang et al. 2013). Immunoprecipitations were performed in modified RIPA buffer consisting of 50 mM Tris HCl; pH 7.4, 150 mM NaCl, Triton X-100 (0.25%), 10 mM EDTA, 10 mM EGTA, 10 μM Calpain inhibitor I, 10 μM Calpain inhibitor II, and Complete Mini-tablets (1 per 7 ml), using anti-FLAG antibody (Sigma) overnight. Immune complexes were collected using protein A (Amersham) for 2 h, followed by extensive washing. Proteins were size-fractionated, transferred to nitrocellulose membranes and probed with anti-FLAG antibody (Sigma), anti-tubulin antibody (Santa Cruz), custom anti-α1C and anti-β2 antibodies (Yang et al. 2013), and phospholamban antibodies (Badrilla). Detection was performed with a CCD camera (Carestream Imaging), and ImageQuant software was used for quantification. […]

[5] = system: left ventricular contraction in isolated Langendorff-perfused hearts; experiment: Ex vivo cardiac contractility, Langendorff-perfused hearts with left ventricular balloon; parameters: species or system mouse; conditions: for increase in contractility in response to isoproterenol: native CaV1.2 first inhibited with nisoldipine; for increase in cardiac contractility: 200 nM isoproterenol with 300 nM nisoldipine, paced at 400 beats per minute
Description: Hearts from these mice are isolated and contractility is assessed by placing a balloon in the left ventricle.
The cannulated hearts were retrogradely perfused on a Langendorff system with a modified Krebs solution (118.5 mM NaCl, 25 mM NaHCO3, 4.7 mM KCl, 1.2 mM MgSO4, 1.2 mM KH2PO4, 11 mM glucose, 1.8 mM Ca^2+). Left ventricular pressure was measured using a balloon catheter connected to an APT-300 pressure transducer, which was connected to a Powerlab digitizer (ADInstruments). […] Peak LV pressure during the 3-minute period was used for the assessment of β-adrenergic agonist stimulation.
We then assessed the role of CaV1.2 modulation in β-adrenergic agonist-induced positive inotropy at the whole organ level by inserting a pressure-transduced balloon into the left ventricle of Langendorff-perfused transgenic mice hearts. This approach enabled measurement of cardiac contractility independent of vascular or systemic effects. Hearts were paced at 400 beats per minute to remove the potentially confounding effect of heart rate variability on contractility (Kushnir et al. 2014). […] By contrast, using the same experimental paradigm in hearts from β-less AID-mutant transgenic mice, the response to isoproterenol was nearly abolished, yielding an average increase in cardiac contractility of only 1.2-fold (FIG. 10H and FIG. 10I).

[6] = system: isolated cardiomyocytes; experiment: Fractional shortening (sarcomere length) of field-stimulated isolated cardiomyocytes; type: cell-based, mouse; conditions: for increase in fractional shortening: 200 nM isoproterenol with 300 nM nisoldipine, 1-Hz
Description: Myocytes were field stimulated at 1-Hz. Percent contraction of sarcomere length was measured using the SarcLen module of Ionoptix and calculated as the difference of shortest sarcomere length during a contraction subtracted from the relaxed sarcomere length, divided by the relaxed sarcomere length, all averaged over at least 8 contractions.
We next exploited the findings that transgenic β-less AID-mutant α1C channels are insensitive to PKA modulation to probe the specific role of CaV1.2 modulation in the positive inotropic effect of β-adrenergic agonists in both isolated cardiomyocytes and in the whole heart. […] By contrast, this response was severely diminished in cardiomyocytes expressing transgenic β-less AID-mutant α1C channels in which isoproterenol produced a relatively meager 25% increase in fractional shortening (FIG. 10B and FIG. 10C).

In the case of `Nc1ncnc2c1nc(Br)n2C1OC2COP(O)(=S)OC2C1O` (stereo not drawn) [Rp-8-Br-cAMPS], the “reversal of isoproterenol-mediated up-regulation of endogenous CaV1.2” value [1] is given as roughly 96% and the “inhibition of nisoldipine-resistant basal current” value ([2]; transgenic AID-mutant mice cardiomyocytes) is given as “did not inhibit”.

In the case of `C=C[C@@]1(C)CC(=O)[C@]2(O)[C@@]3(C)[C@@H](O)CCC(C)(C)[C@@H]3[C@H](O)[C@H](OC(C)=O)[C@@]2(C)O1` [forskolin], the “increase in whole-cell current amplitude” value [3] was 4- to 5 fold and the “increase of transgenic pWT α1C Ca2+ currents” value ([2]; transgenic pWT α1C cardiomyocytes, 10 μM forskolin, 300 nM nisoldipine) was 1.8+0.1 fold.

In the case of `CC(C)NCC(O)c1ccc(O)c(O)c1` (stereo not drawn) [isoproterenol], the “phosphorylation of phospholamban at Ser16 in response to isoproterenol” value [4] was “appropriately phosphorylated”, the “increase in contractility in response to isoproterenol” value ([5]; control mice) was 75-200% and the “increase in contractility in response to isoproterenol” value ([5]; mutant mice (CaV1.2 lacking AID)) was 0-25%. For the same molecule, the “increase in cardiac contractility” value ([5]; pWT α1C hearts) was 3.3 fold, the “increase in cardiac contractility” value ([5]; β-less AID-mutant transgenic hearts) was 1.2 fold and the “effect on relaxation of cardiomyocytes” value ([6]; cardiomyocytes from both pWT and AID-mutant α1C transgenic mice) was “enhanced relaxation”. For the same molecule, the “increase in fractional shortening” value ([6]; transgenic pWT α1C cardiomyocytes) was 100%, the “increase in fractional shortening” value ([6]; β-less AID-mutant α1C cardiomyocytes) was 25% and the “shift of Vmid (V0.5) of steady-state activation” value ([2]; GFP-WT β2b cardiomyocytes, 200 nM isoproterenol) was −7.0 mV. For the same molecule, the “increase of peak CaV1.2 current” value ([2]; GFP-WT β2 expressing cells, 200 nM isoproterenol) was 1.5±0.1 fold, the “shift of Vmid (V0.5) of steady-state activation” value ([2]; GFP-mutant β2b cardiomyocytes, 200 nM isoproterenol) was −7.5 mV and the “increase of peak CaV1.2 current” value ([2]; GFP-mutant β2 expressing cells, 200 nM isoproterenol) was 1.6±0.1 fold. The “shift of Vmid in the hyperpolarizing direction” value ([2]; transgenic pWT α1C cardiomyocytes, 200 nM isoproterenol) was 4.4 mV and the “increase of nisoldipine-insensitive current” value ([2]; transgenic pWT α1C cardiomyocytes, 200 nM isoproterenol, 300 nM nisoldipine) was 1.9±0.1 fold.
